According to PubChem BioAssay AID330 (DTP/NCI, 2004):
Where “and” joins values, the source holds several entries; their conditions need not be identical. Identical values can stand only once. Inconclusive results and toxic doses are left out. How the source made its calls: active means survival T/C of 150% or more; inactive means T/C below 125% in these data.

Tested on: P388 leukemia ip, CD2F1 mice, survival T/C
Assay: NCI In Vivo Anticancer Drug Screen. Data for tumor model P388 Leukemia (intraperitoneal) in CD2F1 (CDF1) mice
Settings: endpoint: median survival time, higher = longer survival
Outline: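 Mice carrying the transplanted tumor received test compound or vehicle. Survival was recorded in each group, and the value is the treated-group measurement divided by that of the vehicle-treated control group.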

Measured: T/C

O=C1OC(C(O)CO)C(O)=C1O (centres undefined)
inactive: dose: 0.05 mg/kg/injection, schedule: Q01DX005 (iv), vehicle: saline 108 % of control | dose: 0.05 mg/kg/injection, schedule: Q01DX009 (im), vehicle: saline 100 % of control | dose: 0.05 mg/kg/injection, schedule: Q01DX009 (oral), vehicle: saline 100 % of control | dose: 0.1 mg/kg/injection, schedule: Q01DX005 (iv), vehicle: saline 117 % of control | dose: 0.1 mg/kg/injection, schedule: Q01DX009 (im), vehicle: saline 100 % of control | dose: 0.1 mg/kg/injection, schedule: Q01DX009 (oral), vehicle: saline 100 % of control and 104 % of control | dose: 0.1 mg/kg/injection, schedule: Q01DX009 (sc), vehicle: saline 109 % of control | dose: 0.1 mg/kg/injection, schedule: Q08HX010 (ip), vehicle: saline 99 % of control | dose: 0.2 mg/kg/injection, schedule: Q01DX005 (iv), vehicle: saline 104 % of control | dose: 0.2 mg/kg/injection, schedule: Q01DX009 (im), vehicle: saline 100 % of control | dose: 0.2 mg/kg/injection, schedule: Q01DX009 (oral), vehicle: saline 100 % of control | dose: 0.2 mg/kg/injection, schedule: Q01DX009 (sc), vehicle: saline 109 % of control | dose: 0.2 mg/kg/injection, schedule: Q08HX010 (ip), vehicle: saline 99 % of control | dose: 0.39 mg/kg/injection, schedule: Q01DX005 (iv), vehicle: saline 113 % of control | dose: 0.39 mg/kg/injection, schedule: Q01DX009 (im), vehicle: saline 104 % of control | dose: 0.39 mg/kg/injection, schedule: Q01DX009 (oral), vehicle: saline 100 % of control and 108 % of control | dose: 0.39 mg/kg/injection, schedule: Q01DX009 (sc), vehicle: saline 100 % of control | dose: 0.4 mg/kg/injection, schedule: Q08HX010 (ip), vehicle: saline 99 % of control | dose: 0.78 mg/kg/injection, schedule: Q01DX005 (iv), vehicle: saline 104 % of control | dose: 0.78 mg/kg/injection, schedule: Q01DX009 (im), vehicle: saline 104 % of control | dose: 0.78 mg/kg/injection, schedule: Q01DX009 (oral), vehicle: saline 100 % of control and 95 % of control | dose: 0.78 mg/kg/injection, schedule: Q01DX009 (sc), vehicle: saline 109 % of control | dose: 1.56 mg/kg/injection, schedule: Q01DX005 (iv), vehicle: saline 104 % of control | dose: 1.56 mg/kg/injection, schedule: Q01DX009 (im), vehicle: saline 100 % of control | dose: 1.56 mg/kg/injection, schedule: Q01DX009 (oral), vehicle: saline 100 % of control and 104 % of control | dose: 1.56 mg/kg/injection, schedule: Q01DX009 (sc), vehicle: saline 100 % of control | dose: 3.13 mg/kg/injection, schedule: Q01DX005 (iv), vehicle: saline 104 % of control | dose: 3.13 mg/kg/injection, schedule: Q01DX009 (im), vehicle: saline 104 % of control | dose: 3.13 mg/kg/injection, schedule: Q01DX009 (oral), vehicle: saline 100 % of control and 116 % of control | dose: 3.13 mg/kg/injection, schedule: Q01DX009 (sc), vehicle: saline 100 % of control | dose: 6.25 mg/kg/injection, schedule: Q01DX005 (iv), vehicle: saline 104 % of control | dose: 6.25 mg/kg/injection, schedule: Q01DX009 (im), vehicle: saline 104 % of control | dose: 6.25 mg/kg/injection, schedule: Q01DX009 (oral), vehicle: saline 100 % of control and 112 % of control | dose: 6.25 mg/kg/injection, schedule: Q01DX009 (sc), vehicle: saline 95 % of control | dose: 10.0 mg/kg/injection, schedule: Q01DX005 (ip), vehicle: saline 100 % of control | dose: 12.5 mg/kg/injection, schedule: Q01DX005 (iv), vehicle: saline 104 % of control | dose: 12.5 mg/kg/injection, schedule: Q01DX009 (im), vehicle: saline 109 % of control | dose: 12.5 mg/kg/injection, schedule: Q01DX009 (oral), vehicle: saline 100 % of control and 108 % of control | dose: 12.5 mg/kg/injection, schedule: Q01DX009 (sc), vehicle: saline 104 % of control | dose: 20.0 mg/kg/injection, schedule: Q01DX005 (ip), vehicle: saline 100 % of control | dose: 25.0 mg/kg/injection, schedule: Q01DX005 (iv), vehicle: saline 104 % of control | dose: 25.0 mg/kg/injection, schedule: Q01DX009 (im), vehicle: saline 100 % of control | dose: 25.0 mg/kg/injection, schedule: Q01DX009 (oral), vehicle: saline 100 % of control and 104 % of control | dose: 25.0 mg/kg/injection, schedule: Q01DX009 (sc), vehicle: saline 100 % of control | dose: 40.0 mg/kg/injection, schedule: Q01DX005 (ip), vehicle: saline 103 % of control | dose: 50.0 mg/kg/injection, schedule: Q01DX005 (iv), vehicle: saline 117 % of control | dose: 50.0 mg/kg/injection, schedule: Q01DX009 (im), vehicle: saline 109 % of control | dose: 50.0 mg/kg/injection, schedule: Q01DX009 (oral), vehicle: saline 100 % of control and 108 % of control | dose: 50.0 mg/kg/injection, schedule: Q01DX009 (sc), vehicle: saline 100 % of control | dose: 60.0 mg/kg/injection, schedule: Q01DX005 (ip), vehicle: saline 100 % of control | dose: 100.0 mg/kg/injection, schedule: Q01DX005 (iv), vehicle: saline 100 % of control | dose: 100.0 mg/kg/injection, schedule: Q01DX009 (im), vehicle: saline 104 % of control | dose: 100.0 mg/kg/injection, schedule: Q01DX009 (oral), vehicle: saline 100 % of control | dose: 100.0 mg/kg/injection, schedule: Q01DX009 (sc), vehicle: saline 100 % of control | dose: 120.0 mg/kg/injection, schedule: Q01DX005 (ip), vehicle: saline 102 % of control | dose: 200.0 mg/kg/injection, schedule: Q01DX005 (iv), vehicle: saline 104 % of control | dose: 200.0 mg/kg/injection, schedule: Q01DX009 (im), vehicle: saline 104 % of control | dose: 200.0 mg/kg/injection, schedule: Q01DX009 (oral), vehicle: saline 100 % of control and 104 % of control | dose: 200.0 mg/kg/injection, schedule: Q01DX009 (sc), vehicle: saline 90 % of control | dose: 250.0 mg/kg/injection, schedule: Q01DX005 (ip), vehicle: saline 86 % of control | dose: 300.0 mg/kg/injection, schedule: Q08HX010 (ip), vehicle: saline 99 % of control | dose: 400.0 mg/kg/injection, schedule: Q01DX005 (iv), vehicle: saline 100 % of control | dose: 400.0 mg/kg/injection, schedule: Q01DX009 (im), vehicle: saline 100 % of control | dose: 400.0 mg/kg/injection, schedule: Q01DX009 (ip), vehicle: saline 110 % of control and 77 % of control | dose: 400.0 mg/kg/injection, schedule: Q01DX009 (oral), vehicle: saline 108 % of control and 95 % of control | dose: 400.0 mg/kg/injection, schedule: Q01DX009 (sc), vehicle: saline 104 % of control | dose: 500.0 mg/kg/injection, schedule: Q01DX005 (ip), vehicle: saline 86 % of control | dose: 600.0 mg/kg/injection, schedule: Q08HX010 (ip), vehicle: saline 102 % of control and 94 % of control | dose: 800.0 mg/kg/injection, schedule: Q01DX009 (im), vehicle: saline 100 % of control | dose: 800.0 mg/kg/injection, schedule: Q01DX009 (ip), vehicle: saline 99 % of control and 94 % of control | dose: 800.0 mg/kg/injection, schedule: Q01DX009 (oral), vehicle: saline 100 % of control and 108 % of control | dose: 800.0 mg/kg/injection, schedule: Q01DX009 (sc), vehicle: saline 95 % of control | dose: 1000.0 mg/kg/injection, schedule: Q01DX005 (ip), vehicle: saline 87 % of control | dose: 1200.0 mg/kg/injection, schedule: Q01DX009 (ip), vehicle: saline 110 % of control | dose: 1200.0 mg/kg/injection, schedule: Q08HX010 (ip), vehicle: saline 101 % of control and 94 % of control | dose: 1600.0 mg/kg/injection, schedule: Q01DX009 (im), vehicle: saline 100 % of control | dose: 1600.0 mg/kg/injection, schedule: Q01DX009 (ip), vehicle: saline 102 % of control and 61 % of control | dose: 1600.0 mg/kg/injection, schedule: Q01DX009 (oral), vehicle: saline 100 % of control and 91 % of control | dose: 1600.0 mg/kg/injection, schedule: Q01DX009 (sc), vehicle: saline 104 % of control

CC1=NN(C(=O)c2ccccc2)C(C)(C)C1
inactive: dose: 50.0 mg/kg/injection, schedule: Q01DX005 (ip), vehicle: Klucel (hydroxypropylcellulose) (HPC) 113 % of control | dose: 100.0 mg/kg/injection, schedule: Q01DX005 (ip), vehicle: Klucel (hydroxypropylcellulose) (HPC) 111 % of control | dose: 200.0 mg/kg/injection, schedule: Q01DX005 (ip), vehicle: Klucel (hydroxypropylcellulose) (HPC) 97 % of control

O=c1[nH]c(-c2ccncc2)nnc1-c1ccc(Cl)cc1
inactive: dose: 100.0 mg/kg/injection, schedule: Q04DX002 (ip), vehicle: saline with Tween-80 88 % of control | dose: 200.0 mg/kg/injection, schedule: Q04DX002 (ip), vehicle: saline with Tween-80 93 % of control
